Patent US10822450B2, “Poly(glycerol sebacate)-interleukin inhibitor copolymers and methods of making and use” (THE SECANT GROUP, LLC, priority 2017, dated 2020)

Type: physicochemical
Settings: pH 11
Description: A PGS-aspirin copolymer from Example 6 was thermoset by heating to 130° C. at a pressure of 10 Torr for 72 hours. Three thin cylindrical disks, each having a diameter of 10 mm, were punched out of the resultant thin film, which was about 1 mm thick.
Each disk was placed in 10 mL of 0.09 M phosphate-buffered saline (PBS) at a pH of 11 and a temperature of 37° C. for four weeks. At 1-week intervals, the solution was removed and tested for salicylic acid content by UV analysis at a wavelength of 303 nm and for pH. Each sample was rinsed three times with distilled water and vacuum dried prior to being placed in fresh PBS.

- disk integrity during degradation: began to fall apart
Substance: PGS-aspirin copolymer [Example 8]
